Measurements: patent US20250332147A1, “Methods of Treating Multiple Sclerosis” (Vanda Pharmaceuticals Inc., priority 2021, published 2025)

Columns and labels:
[1] = test system: patients with relapsing multiple sclerosis (RMS); test: OPTIMUM phase 3 study (NCT02425644): systemic corticosteroid (SCS) use for treatment of relapse, ponesimod 20 mg vs teriflunomide 14 mg; format: in vivo, human; settings: for proportion of patients who received ≥1 SCS therapy for treatment of relapse / least squares mean of accumulated steroid dose (prednisone equivalent doses) for treatment of relapse: full analysis set; for proportion of patients who received ≥1 SCS therapy for treatment of relapse: between study treatment start and EOS, PON 20 mg vs TER 14 mg, P<0.0001
Protocol: Subjects were evaluated according to the treatment they were randomized to. • Primary efficacy variable/primary timepoint: The primary endpoint was annualized relapse rate (ARR) up to the end of study (EOS) defined as the number of confirmed relapses per subject-year. All available data up to EOS, regardless of treatment discontinuation was included (ITT approach). Co-Administration of Ponesimod with Corticosteroids
OPTIMUM was a phase 3, double-blind, randomized clinical trial that evaluated the efficacy, safety, and tolerability of PON (20 mg) versus TER (14 mg) in patients with RMS.
Patients with RMS aged 18 to 55 years with a relapsing course (i.e., RMS or secondary progressive MS with superimposed relapses), an Expanded Disability Status Scale (EDSS) score of 0-5.5, and recent clinical or magnetic resonance imaging activity were enrolled.
Patients were excluded from the primary analysis if they received treatment with SCS, unless it was for a multiple sclerosis (MS) relapse or short-term treatment of pulmonary conditions.
In this analysis, the proportions of patients in each treatment group who received concomitant treatment with ≥1 SCS to treat MS relapse between the start of study treatment and end of study (EOS) were compared. In addition, the mean accumulated steroid dose (prednisone equivalent doses in mg) administered to treat relapse between start of study treatment and EOS and between end of treatment (EOT) plus follow-up time was assessed.
Data are shown for analyses of the full analysis set and analyses stratified by baseline EDSS score (baseline EDSS score≤3.5 versus >3.5), prior MS treatment (disease modifying treatment [DMT] within the past 2 years versus no DMT within the past 2 years), or sex (male versus female).
The proportion of patients who received ≥1 SCS therapy for treatment of relapse is provided by treatment group; group differences were examined using Cochran-Mantel Haenszel (CMH) test and stratified by baseline EDSS and prior treatment with DMT.
The between-group difference for the mean accumulated steroid dose for treatment of relapse was evaluated using analysis of covariance models with accumulated steroid dose as the dependent variable, treatment as factor, and EDSS baseline group, and prior treatment with disease-modifying therapy within 2 years prior to randomization as covariates. EDSS baseline group was removed from the model for analyses stratified by baseline EDSS score.

[2] = test system: peripheral blood lymphocyte count; settings: cited from earlier work
[3] = in vivo; cited from earlier work
[4] = from start of study treatment to EOS, P=0.0005
[5] = from start of study treatment to EOT+7 days of follow up, P=0.0007

Row | SMILES | reduction of annualized relapse rate (ARR) ([1]; PON 20 mg vs teriflunomide (TER) 14 mg, patients with RMS) | proportion of patients who received ≥1 SCS therapy for treatment of relapse [1] [%] | least squares mean of accumulated steroid dose (prednisone equivalent doses) for treatment of relapse [1, 4] [mg] | least squares mean of accumulated steroid dose (prednisone equivalent doses) for treatment of relapse [1, 5] [mg] | proportion of patients who received ≥1 SCS therapy, stratified by baseline disability ([1]; only among patients with baseline EDSS≤3.5, compared with teriflunomide group) | peripheral blood lymphocyte count ([2]; blocking the egress of lymphocytes from lymphoid organs) | monocyte, natural killer (NK) cell and neutrophil counts ([2]; in vivo) | elimination from plasma [3]
1 | CCC/N=C1\S/C(=C\c2ccc(OC[C@H](O)CO)c(Cl)c2)C(=O)N1c1ccccc1C [PON, (R)-5-[3-chloro-4-(2,3-dihydroxy-propoxy)-benz[Z]ylidene]-2-([Z]-propylimino)-3-o-tolyl-thiazolidin-4-one] | superior efficacy | 29.1 | 3207.1 | 2977.1 | significantly smaller proportion | rapid, dose-dependent, and reversible reduction | not reduced | 
2 | C/C(O)=C(\C#N)C(=O)Nc1ccc(C(F)(F)F)cc1 [TER] |  | 40.10 | 4257.2 | 3957.4 |  |  |  | eliminated slowly
